These results are taken from patent publication US20180265867A1, “NUCLEIC ACID MOLECULES WITH ENHANCED ACTIVITY” (priority 2015, published 2018).

d = 2'-deoxy (DNA); r = 2'-OH (RNA)

Holding throughout (type): cell-based, human
For series [1], the system named is GAPDH. As to the kind of experiment: Carrier-free GAPDH knockdown in different cell types (HOB, HCT116, MG63) by RT-PCR. The procedure: Primary human osteoblast (HOB) cells isolated from human trabecular bone and keratinocytes and fibroblasts cells were isolated from skin tissue from healthy human donors. MG63 (human osteosarcoma cell line), HCT116 (human colon cancer cell line), HEK293 (human embryonic kidney 293 cells), C2C12 (mouse myoblast cell line) and MC3T3 (mouse osteoblast precursor cell line) cell lines were obtained from American Type Culture Collection, ATCC (Manassas, Va., USA). Cells were cultured until confluence was reached. The human cell experiments were approved by the local ethics committee (Ethical approval # Ups 03-561).
At 70% confluency, a day prior to transfection, the cells were seeded at a density of 35 000 cells in a 24-well cell culture plate to achieve 60-80% confluence at the day of transfection. Cell penetrating siRNAs (cpRNAs) of different lengths were transfected at 50 nM concentrations with Magnet Assisted Transfection (MATra-si) reagent for siRNAs (IBA GmbH, Göttingen, Germany) according to the manufacturers' protocols. […]
cDNA synthesis was performed in triplicate using total RNA reverse transcribed using High Capacity cDNA reverse transcription kit (Applied Biosystems, USA), with non-template control added to ensure a lack of signal in assay background. […] Data from samples with a Ct value equal to or below 35 were further analyzed. Samples were normalized relative to endogenous control and differences in cycle number thresholds were calculated using comparative quantitation 2^−ΔΔcT method (also called the ΔΔCT method), commonly used for analyzing siRNA induced gene knockdown efficiency.
The formulas used to calculate gene knockdown were as follows: First, the ΔCT was calculated as the mean cycle threshold for the target gene minus the mean cycle thresholds for the endogenous controls ACTB, each performed in triplicates: ΔCT=CT (target gene)−CT (endogenous control). Secondly, the ΔΔCT was calculated as the ΔCT of the target minus the ΔCT of negative control (NC): ΔΔCT=ΔCT (target)−ΔCT (NC). […]

In series [2] the test system is MG63 cells. As to the kind of experiment: Fluorescence / confocal microscopy of cellular distribution in MG63 cells. The conditions noted are these: fluorescently labelled, transfection reagent free. The method, then: Cellular uptake experiments were performed by plating cells (1×10^4) in an 8 well chamber slide. At 70% confluency, the cells were transfected with 50 nM Cy3-cpRNA and incubated at 37° C. for 24 h. Control wells were left untreated. Each transfection was performed in triplicate. […] The slides were mounted using Vectashield mounting medium containing 4′, 6-diamidino-2-phenylindole (DAPI) (Vector Labs, Burlingame, Calif.) to stain the nuclei of cells.
MG63—human osteosarcoma cells were cultured in α-MEM (Sigma-Aldrich, Haverhill, UK) medium containing 10% FBS, 1% L-Glutamine, and 1% antibiotics (PeSt) at 37° C. with 5% CO2. One day prior to the siRNA treatment, 35,000 cells were plated per each well of a 24-well plate. On the experiment day, cells were replaced with 10% heat inactivated-FBS containing α-MEM medium with 1% L-Glutamine, and 1% antibiotics (PeSt). Fluorescently (Cy3) labelled CP-siRNA and nicked CP-siRNA having GAPDH targeting sequence (final concentration: 50 nM) was given to the each well. After 24 hours the cells were washed with PBS and fixed with 4% formaldehyde for 20 mins at room temperature and then washed twice with PBS. DAPI (1 ug/ml in PBS) was added to cells for 5 mins and then washed with PBS. The cells were then visualized in Nikon TiU at 20×+1.5× and analysed with the Nikon Imaging software.

Series [3] has as its system IFN-α, IFN-β, IFN-γ. Kind of series: Interferon assay (IFN-α, β, γ mRNA by RT-PCR) in MG63 cells. The conditions noted are these: 50 or 100 nM, 24 h, compared to cell-alone control or scrambled sequence. The procedure: cDNA synthesis was performed in triplicate using total RNA reverse transcribed using High Capacity cDNA reverse transcription kit (Applied Biosystems, USA), with non-template control added to ensure a lack of signal in assay background. Reactions were incubated on a 96-well Applied Biosystems 9800 Fast Thermal Cycler PCR System at 37° C. for 60 min followed by 95° C. for 5 min. The real-time PCR reactions were carried out with 10 μl of 2×TaqMan® Universal PCR Master Mix, no AmpErase® UNG (Applied Biosystems, USA), 9 μl diluted cDNA, and 1 μl of TaqMan gene specific assay mix in a 20 μl final reaction volume. Reference gene beta-actin (ACTB) (Applied Biosystems, USA) was selected as control for normalization of TaqMan data. […] Data from samples with a Ct value equal to or below 35 were further analyzed. Samples were normalized relative to endogenous control and differences in cycle number thresholds were calculated using comparative quantitation 2^−ΔΔcT method (also called the ΔΔCT method), commonly used for analyzing siRNA induced gene knockdown efficiency. […]
Thus, because cellular stress mainly originates from maturation of the RNA-TLR complex in the endosome or activation of RIG-1 in the cytoplasm, we investigated immune activation and IFN response using cpRNA and a scrambled sequence. The levels of Type-I (IFN-α and β) and Type-II (IFN-γ) IFN were tested via quantitative RT-PCR. […]

For “dT2: Canonical GAPDH siRNA, sense SEQ ID NO: 1, antisense SEQ ID NO: 2, dTdT 3′-overhang on both strands (sense CCGAGCCACAUCGCUCAGATT; antisense UCUGAGCGAUGUGGCUCGGTT; sugars from the 5' end r19 d2, backbone not given here) [reference compound]”, the “RNAi activity in primary cells” value in series [1] (primary cells) is reported as “only limited activity”. In series [2], the cellular distribution entry is recorded as “localized distribution to endosome”.

Turning to “dT5: GAPDH siRNA, sense SEQ ID NO: 3 with dT5 3′-overhang, antisense SEQ ID NO: 2 with dT2 (sense CCGAGCCACAUCGCUCAGATTTTT; antisense UCUGAGCGAUGUGGCUCGGTT; sense: sugars from the 5' end r19 d5, backbone not given here; antisense: sugars from the 5' end r19 d2, backbone not given here)”, the “GAPDH gene knockdown in different cell types” value in series [1] (50 nM) was found to be 80%. Besides, the “knockdown efficiency compared to canonical siRNA” value in series [1] (HOB, HCT116 and MG63 cells) was 3-4 fold. Moreover, the “IFN response / immune activation (IFN-α, β, γ mRNA)” value in series [3] is recorded as “no significant IFN response”. In addition, the cellular distribution entry in series [2] is “perinuclear localization within cytosol”.
